Assays:
[1] = system: H460 (NRF2 pathway mutant cell line with high AKR1C3 expression); test: In vitro cell proliferation assay (CellTiter-Glo), H460; type: cell-based; settings: Homo sapiens, NCI-H460, 72 h; H460 cells, 3 days, CellTiter-Glo, top concentration 10 μM; read-out: H460 Qualified absolute AC50
In short: (§1)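 Cells seeded day 1 (H460 800/well, Hara 2000/well) in RPMI-1640 with 10% FBS; compounds added day 2 as 8-point 1:5 dilutions from 10 μM top. After 3 days at 37 °C, viability read by CellTiter-Glo luminescence, normalized to DMSO and MG132 (30 μM) controls to derive percentage activity and AC50.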

[2] = system: Hara (NRF2 pathway wild type cell line with low AKR1C3 expression); test: In vitro cell proliferation assay (CellTiter-Glo), Hara; type: cell-based; settings: 72 h; Hara cells, 3 days, CellTiter-Glo, top concentration 10 μM; read-out: HARA Qualified absolute AC50
In short: as §1

Human KARS = molecular target: T1, Human KARS (Homo sapiens, UniProt Q15046); test: KARS AMP Transcreener FP assay; type: biochemical; settings: 50 nM human KARS, 20 μM ATP, 50 μM L-Lysine, 1 μM tRNA, 2 h at RT; read-out: Human KARS Transcreener AMP assay Qualified absolute AC50
T1 construct: Human KARS protein (residues 70-584) was expressed and purified; made in house
From the text: KARS AMP Transcreener FP Assay to Measure Inhibition of KARS Enzymatic Activity
Lysine-tRNA synthetase (KARS) is an enzyme that catalyzes the reaction of ATP, L-lysine, and tRNA(Lys) to form AMP, diphosphate, and L-lysyl-tRNA(Lys).
The Transceener® AMP/GMP (BellBrook Labs, Madison, WI, USA) is a far red, competitive fluorescence polarization (FP) immunoassay based on the detection of AMP, which is one of the products of aminoacylation of tRNA. In this assay, a fluorescently labeled AMP (AMP Alexa Fluor 633) is used as the tracer that can be recognized by a specific antibody. In the absence of AMP, all the tracer molecules are bound to the antibodies leading to large polarization. The AMP product generated by the enzyme reaction will compete with the tracer for binding to the antibody which leads to a decrease in the polarization. As such, the enzyme activity is inversely proportional to FP values.
Human KARS protein (residues 70-584) was expressed and purified using a similar protocol to what is described in literature (Crystal structure of tetrameric form of human lysyl-tRNA synthetase: Implications for multisynthetase complex formation Guo, M., Ignatov, M., Musier-Forsyth, K., Schimmel, P., Yang, X. L. (2008) Proc. Natl. Acad. Sci. Usa 105: 2331-2336).
The KARS enzyme assay was performed in a final volume of 10 μL per well of Corning Costar 384 well plate, flat bottom, black non-treated plate. The final assay concentration was 20 mM HEPES pH 7.5, 1 mM DTT, 50 nM human KARS, 20 μM ATP, 50 μM L-Lysine, 1 μM tRNA and 8 mM MgCl2. Compounds were serial diluted 1:3 in DMSO in a master plate to generate a 10 concentration points dose response with maximum concentration of 10 mM. 50 nL from compound master plate were spotted in each well of a 384 black plate (Corning 3573), and 5 μL of enzyme mixture containing 100 nM KARS diluted in assay buffer (20 mM HEPES pH 7.5 and 1 mM OTT) were added. The reaction was started by adding 5 μL of the substrate mixture containing 40 μM ATP (final 20 μM ATP), 100 μM L-Lysine (final 50 μM), 2 μM tRNA (final 1 μM), 16 mM MgCl2 (final 8 mM MgCl2) diluted in assay buffer (20 mM HEPES pH 7.5 and 1 mM OTT). The mixtures were mixed and incubated for 2 h at RT before the termination of the reaction.
Transcreener® stop and detection buffers were prepared (1× stop buffer [final: 0.5×], 2 nM Tracer [final: 1 nM] and 5 μg/ml anti-AMP antibody [final: 2.5 μg/ml] in deionized water) and 10 μL of the stop and detection mix were added to the reaction wells, mixed for a minute and centrifuged at 1000 rpm for 10 seconds. The plates were read after incubating at RT for 30-60 min using Infinite® M1000 with the following settings: Excitation wavelength: 635 nm; Emission wavelength: 680 nm. FP values of DMSO controls were used to normalize the data and calculate IC50s of compounds using the Helios Software suite.

T1 sequence (Q15046 70-584): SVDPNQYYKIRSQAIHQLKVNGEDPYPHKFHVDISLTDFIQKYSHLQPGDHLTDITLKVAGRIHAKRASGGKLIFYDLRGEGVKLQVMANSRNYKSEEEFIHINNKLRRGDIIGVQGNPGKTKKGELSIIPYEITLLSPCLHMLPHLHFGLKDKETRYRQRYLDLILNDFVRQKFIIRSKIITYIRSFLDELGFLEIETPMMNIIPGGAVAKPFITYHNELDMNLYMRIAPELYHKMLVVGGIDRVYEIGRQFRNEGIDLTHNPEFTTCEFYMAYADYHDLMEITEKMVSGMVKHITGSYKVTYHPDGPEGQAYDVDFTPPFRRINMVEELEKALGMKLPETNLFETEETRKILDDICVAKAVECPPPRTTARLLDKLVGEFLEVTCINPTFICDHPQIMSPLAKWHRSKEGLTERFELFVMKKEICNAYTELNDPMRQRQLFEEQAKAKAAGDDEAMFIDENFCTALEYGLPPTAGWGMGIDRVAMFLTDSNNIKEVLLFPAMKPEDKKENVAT

Row | SMILES | AC50 (Human KARS) [nM] | AC50 [1] [nM] | AC50 [2] [nM]
1 | NC(=O)c1cc(CNC(=O)N2CCC3(CC2)CC(O)c2cc(F)cc(F)c2N3)ccc1F (racemic) [Example 157, N-(3-carbamoyl-4-fluorobenzyl)-6′,8′-difluoro-4′-hydroxy-3′,4′-dihydro-1′H-spiro[piperidine-4,2′-quinoline]-1-carboxamide] | 34.1 | 0.1 | 2
2 | Nc1cc(CNC(=O)N2CCC3(CC2)CC(O)c2cc(F)ccc2N3)ccc1F (racemic) [Example 158, N-(3-amino-4-fluorobenzyl)-6′-fluoro-4′-hydroxy-3′,4′-dihydro-1′H-spiro[piperidine-4,2′-quinoline]-1-carboxamide] | 42.1 | 33 | 6
3 | O=C(NCc1ccc(F)c(CO)c1)N1CCC2(CC1)CC(O)c1cc(F)ccc1N2 (racemic) [Example 159, 6′-fluoro-N-(4-fluoro-3-(hydroxymethyl)benzyl)-4′-hydroxy-3′,4′-dihydro-1′H-spiro[piperidine-4,2′-quinoline]-1-carboxamide] | 45.9 | 53 | 67
4 | NC(=O)c1cc(CNC(=O)N2CCC3(CC2)CC(O)c2cc(F)ccc2N3)ccc1F (racemic) [Example 160, N-(3-carbamoyl-4-fluorobenzyl)-6′-fluoro-4′-hydroxy-3′,4′-dihydro-1′H-spiro[piperidine-4,2′-quinoline]-1-carboxamide] | 47.2 | 0.4 | 1
5 | CN1c2ccc(F)cc2C(O)CC12CCN(C(=O)NCc1ccc(F)c(CC(N)=O)c1)CC2 (racemic) [Example 161, N-(3-(2-amino-2-oxoethyl)-4-fluorobenzyl)-6′-fluoro-4′-hydroxy-1′-methyl-3′,4′-dihydro-1′H-spiro[piperidine-4,2′-quinoline]-1-carboxamide] | 71.8 | 278 | 91
6 | CN1c2ccc(F)cc2C(O)CC12CCN(C(=O)NCc1ccc(F)c(OCCO)c1)CC2 (racemic) [Example 163] | 98.4 | 76 | 11
7 | CN1c2ccc(F)cc2C(O)CC12CCN(C(=O)NCc1ccc(F)c([C@@H](N)C(F)(F)F)c1)CC2 (mixture of isomers) [Example 167, N-(3-((R)-1-amino-2,2,2-trifluoroethyl)-4-fluorobenzyl)-6′-fluoro-4′-hydroxy-1′-methyl-3′,4′-dihydro-1′H-spiro[piperidine-4,2′-quinoline]-1-carboxamide] | 918 | 345 | 100
8 | O=C(NCc1ccc(F)cc1)N1CCC2(CC1)C[C@@H](O)c1cc(F)ccc1N2 (single isomer, unassigned) [Example 152] | 9.1 | 21 | 16
9 | O=C(NCc1ccc(F)cc1)N1CCC2(CC1)C[C@H](O)c1cc(F)ccc1N2 (single isomer, unassigned) [Example 153] | > 10000 | 2260 | 2500
10 | CN1c2ccc(F)cc2C(=O)CC12CCN(C(=O)NCc1ccc(F)cc1)CC2 [Example 9, 6′-fluoro-N-(4-fluorobenzyl)-1′-methyl-4′-oxo-3′,4′-dihydro-1′H-spiro[piperidine-4,2′-quinoline]-1-carboxamide] | > 10000 | 17 | > 10000

Second part, led by results:

Row | AC50 (Human KARS) [nM] | SMILES | AC50 [1] [nM] | AC50 [2] [nM]
11 | 23.5 | CN1c2ccc(F)cc2C(O)CC12CCN(C(=O)NCc1cc(NCCO)c(F)cc1F)CC2 (racemic) [Example 156, N-(2,4-difluoro-5-((2-hydroxyethyl)amino)benzyl)-6′-fluoro-4′-hydroxy-1′-methyl-3′,4′-dihydro-1′H-spiro[piperidine-4,2′-quinoline]-1-carboxamide] | 49 | 80
12 | 106 | CS(=O)(=O)Nc1cc(CNC(=O)N2CCC3(CC2)CC(O)c2cc(F)ccc2N3)ccc1F (racemic) [Example 164, 6′-fluoro-N-(4-fluoro-3-(methylsulfonamido)benzyl)-4′-hydroxy-3′,4′-dihydro-1′H-spiro[piperidine-4,2′-quinoline]-1-carboxamide] | 253 | 234
13 | 243 | COCCNc1cc(F)ccc1CNC(=O)N1CCC2(CC1)CC(O)c1cc(F)ccc1N2C (racemic) [Example 166, 6′-fluoro-N-(4-fluoro-2-((2-methoxyethyl)amino)benzyl)-4′-hydroxy-1′-methyl-3′,4′-dihydro-1′H-spiro[piperidine-4,2′-quinoline]-1-carboxamide] | 3 | 22
14 | 9.1 | CN1c2ccc(F)cc2[C@H](O)CC12CCN(C(=O)NCc1ccc(F)cc1)CC2 (single isomer, unassigned) [Example 151a] | 24 | 20
15 | 11.7 | O=C(NCc1ccc(F)cc1O)N1CCC2(CC1)C[C@@H](O)c1cc(F)ccc1N2 (single isomer, unassigned) [Example 154a] | 5 | 5
16 | 199 | CN1c2ccc(F)cc2C(O)CC12CCN(C(=O)NCc1ccc(F)c(NCCO)c1)CC2 (stereo not drawn) [Example 165, 6′-fluoro-N-(4-fluoro-3-((2-hydroxyethyl)amino)benzyl)-4′-hydroxy-1′-methyl-3′,4′-dihydro-1′H-spiro[piperidine-4,2′-quinoline]-1-carboxamide] | 49 | 23

Source: patent US11970497B2, “Tricyclic AKR1C3 dependent KARS inhibitors” (Novartis AG, priority 2019, dated 2024)
